From patent US20230129034A1, “TREATMENT OF DISEASE WITH ESTERS OF SELECTIVE RXR AGONISTS” (Io Therapeutics, Inc., priority 2017, published 2023)
Entries after “also recorded” stand apart in the source; their conditions may differ.

Legend:
RARβ [1] = target: T1, RARβ (Homo sapiens, UniProt P10826); assay: RAR transactivation assay (ER-RAR fusion, ERE-tk-Luc reporter, CV-1 cells); format: cell-based; conditions: 20 hours, luciferase activity
T1 construct: expressed in transfected cells; host or cells: CV-1
Text: (§1) Data are mean values ± SE from five independent experiments.
T1 sequence (P10826 183-417 limits assumed, species assumed): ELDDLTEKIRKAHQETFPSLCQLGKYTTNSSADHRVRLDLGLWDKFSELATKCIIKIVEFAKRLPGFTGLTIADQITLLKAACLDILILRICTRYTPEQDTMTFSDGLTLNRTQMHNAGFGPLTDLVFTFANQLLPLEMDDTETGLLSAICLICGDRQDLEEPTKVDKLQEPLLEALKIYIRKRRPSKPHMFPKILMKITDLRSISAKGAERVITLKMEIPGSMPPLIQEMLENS

RARγ [2] = target: T2, RARγ (Homo sapiens, UniProt P13631); assay: as above; format: cell-based; conditions: 20 hours, luciferase activity
T2 construct: expressed in transfected cells; host or cells: CV-1
Text: as §1
T2 sequence (P13631 185-419 limits assumed, species assumed): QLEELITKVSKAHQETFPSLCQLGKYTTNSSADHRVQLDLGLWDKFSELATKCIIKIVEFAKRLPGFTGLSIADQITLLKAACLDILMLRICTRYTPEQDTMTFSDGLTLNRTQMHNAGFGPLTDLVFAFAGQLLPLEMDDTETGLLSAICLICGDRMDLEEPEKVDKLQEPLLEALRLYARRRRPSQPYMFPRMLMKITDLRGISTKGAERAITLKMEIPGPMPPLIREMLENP

RXRγ = target: T3, RXRγ (Homo sapiens, UniProt P48443); assay: Competitive displacement of [3H]-9CRA from purified receptor; conditions: 10 nM [3H]-9CRA; read-out: RXR Binding Affinity Ki (nM) RXRγ
T3 construct: an expression construct including a full length RXRα, RXRβ, or RXRy; expressed in transfected cells; host or cells: CV-1
T3 sequence (P48443 1-463): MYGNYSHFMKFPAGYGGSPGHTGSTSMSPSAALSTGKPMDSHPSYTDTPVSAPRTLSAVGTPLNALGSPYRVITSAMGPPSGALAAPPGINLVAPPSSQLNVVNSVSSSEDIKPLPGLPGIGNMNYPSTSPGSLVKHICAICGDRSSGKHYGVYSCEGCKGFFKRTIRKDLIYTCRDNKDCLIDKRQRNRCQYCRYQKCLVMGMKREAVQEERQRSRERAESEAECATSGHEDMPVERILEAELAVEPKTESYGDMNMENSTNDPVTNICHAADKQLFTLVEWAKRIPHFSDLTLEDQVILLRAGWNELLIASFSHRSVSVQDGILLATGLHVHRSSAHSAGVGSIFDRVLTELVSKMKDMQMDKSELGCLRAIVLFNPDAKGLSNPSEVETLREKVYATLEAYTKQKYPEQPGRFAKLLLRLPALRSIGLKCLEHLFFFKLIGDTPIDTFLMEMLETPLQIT
Text: (§2) Standard errors (±) among independent experiments are indicated.

RARα = target: T4, RARα (Homo sapiens, UniProt P10276); assay: Competitive displacement of [3H]-ATRA from purified receptor; conditions: 5 nM [3H]-ATRA; read-out: RAR Binding Affinity Ki (nM) RARα
T4 construct: made in house; host or cells: SF21 insect cells (baculovirus)
T4 sequence (P10276 whole entry, species assumed): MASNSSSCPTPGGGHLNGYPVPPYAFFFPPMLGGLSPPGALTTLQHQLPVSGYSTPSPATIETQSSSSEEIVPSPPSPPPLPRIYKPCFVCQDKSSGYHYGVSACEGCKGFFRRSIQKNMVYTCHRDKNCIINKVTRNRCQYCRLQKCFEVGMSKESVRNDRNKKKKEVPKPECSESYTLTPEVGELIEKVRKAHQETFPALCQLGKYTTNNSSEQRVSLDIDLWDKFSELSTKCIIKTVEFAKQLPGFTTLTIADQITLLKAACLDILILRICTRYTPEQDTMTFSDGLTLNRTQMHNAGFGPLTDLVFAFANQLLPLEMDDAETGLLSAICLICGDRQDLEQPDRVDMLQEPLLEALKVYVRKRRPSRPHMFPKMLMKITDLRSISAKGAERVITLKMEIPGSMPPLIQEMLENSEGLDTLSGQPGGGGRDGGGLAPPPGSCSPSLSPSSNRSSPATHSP
Text: as §2

RARβ [3] = target: T5, RARβ (Homo sapiens, UniProt P10826); assay: as above; conditions: 5 nM [3H]-ATRA; read-out: RAR Binding Affinity Ki (nM) RARβ
T5 construct: made in house; host or cells: SF21 insect cells (baculovirus)
Text: as §2
T5 sequence (P10826 whole entry, species assumed, the tested form may be a part): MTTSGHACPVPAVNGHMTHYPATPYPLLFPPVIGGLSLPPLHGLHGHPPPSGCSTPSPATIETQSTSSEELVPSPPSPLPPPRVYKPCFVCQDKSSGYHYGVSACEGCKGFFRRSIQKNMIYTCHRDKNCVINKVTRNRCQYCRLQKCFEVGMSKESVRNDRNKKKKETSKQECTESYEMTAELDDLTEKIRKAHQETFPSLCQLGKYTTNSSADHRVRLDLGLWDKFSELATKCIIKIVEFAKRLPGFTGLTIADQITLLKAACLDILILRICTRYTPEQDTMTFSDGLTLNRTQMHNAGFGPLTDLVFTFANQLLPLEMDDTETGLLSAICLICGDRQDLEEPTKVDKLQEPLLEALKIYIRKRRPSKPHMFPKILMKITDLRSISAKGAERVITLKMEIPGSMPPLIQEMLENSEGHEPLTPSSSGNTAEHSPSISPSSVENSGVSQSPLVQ

RARγ [4] = target: RARγ (Homo sapiens, UniProt P13631); assay: as above; conditions: 5 nM [3H]-ATRA; read-out: RAR Binding Affinity Ki (nM) RARγ
Text: as §2
Target sequence in this assay (P13631 whole entry, species assumed): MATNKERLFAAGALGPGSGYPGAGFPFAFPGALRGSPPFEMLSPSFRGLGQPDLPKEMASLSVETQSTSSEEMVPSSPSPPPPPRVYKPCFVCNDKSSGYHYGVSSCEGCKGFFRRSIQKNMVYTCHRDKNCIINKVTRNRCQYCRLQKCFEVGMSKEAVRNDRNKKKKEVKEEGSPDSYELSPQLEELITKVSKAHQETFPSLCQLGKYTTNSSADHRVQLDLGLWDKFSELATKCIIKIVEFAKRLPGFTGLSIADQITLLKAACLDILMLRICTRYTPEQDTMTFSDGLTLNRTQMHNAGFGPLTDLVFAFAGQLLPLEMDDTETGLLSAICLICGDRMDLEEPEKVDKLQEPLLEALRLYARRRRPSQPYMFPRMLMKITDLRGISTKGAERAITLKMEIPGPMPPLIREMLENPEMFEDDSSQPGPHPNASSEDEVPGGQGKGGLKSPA

PPARy/RXR = assay: Permissive heterodimer transactivation assay, CV-1 cells, 3x(rAOX/DR1)-tk-Luc; format: cell-based; conditions: 20 hr, luciferase vs rosiglitazone
Text: (§3) For PPARy: CV-1 cells were transfected with 3x(rAOX/DR1)-tk-Luc reporter gene and an expression vector for PPARy. For FXR:CV-1 cells were transfected with 3x(IBABP/IRI)-tk-Luc reporter gene and vectors for FXR and RXRα. For LXR:CV-1 cells were transfected with 3x(PLTP/LXRE)-tk-Luc reporter gene with vectors for LXRα or LXRβ. For Nurr1: COS7 cells were transfected with 3xNBRE-tk-luc reporter gene and full length Nurr-1 with or without full-length RXRα plasmid. […] Luciferase data were normalized to co-transfected β-gal activity. Luciferase activity was expressed as percent of maximal activity obtained using specific agonists. Rosiglitazone (PPARy), GW4064 (FXR), T0901317 (LXR).

LXRα/RXR = assay: Permissive heterodimer transactivation assay, CV-1 cells, 3x(PLTP/LXRE)-tk-Luc; format: cell-based; conditions: 20 hr, luciferase vs T0901317
Text: as §3

LXRβ/RXR = assay: as above; format: cell-based; conditions: 20 hr, luciferase vs T0901317
Text: as §3

[5] = test system: demyelinated caudal cerebellar peduncles of one year old rats; assay: Focal toxin (ethidium bromide) induced rat model of demyelination; format: in vivo
Experimental: The experiment uses rats of relatively advanced age (1 year) since such rats undergo remyelination in a less efficient manner, thereby providing data that are more relevant to the clinical treatment of human patients with multiple sclerosis or other demyelination disorders.
Focal demyelination is induced in one year old rats (approximately 300 g in weight) by injecting stereotactically 5 µl of ethidium bromide solution (0.01% vol/vol in saline) in a bilateral manner into the caudal cerebellar peduncles (CCP). […] The rats are killed on day 24 post-ethidium bromide treatment for analysis of remyelination by quantitative polymerase chain reaction (qPCR) and microscopy.

[6] = Plasma and brain concentrations after intravenous injection in ICR mice (LC-MS/MS); format: in vivo; conditions: 1 mg/kg IV
Experimental: The compounds were dissolved in 4% DMSO, 1% Tween80 and 95% PBS(v/v) at a concentration of 0.2 mg/ml. Each mouse was injected with a volume to deliver 1 mg/kg of the compound (corresponding to 3 mg/m^2).
At designated time points (0.5, 1.5, and 3 hr), with the mice under terminal isofluorane anesthesia, systemic blood sample (ca 0.4-0.5 mL) were collected by cardiac puncture into micro-tube containing sodium EDTA-K2 as anti-coagulant (n=3 at each time point). Blood samples from the IRX4204EE arm of the study had appropriate esterase inhibitors added. The blood was centrifuged at 13000 rpm for 3 min at 4° C. to obtain plasma and protein was precipitated with acetonitrile prior to being assayed for compound content. The brain was removed and transferred to a pre-weighed vessel for weight determination. Brain tissue was homogenized in five volumes of PBS, centrifuged, and the supernatant assayed for compound content. […] The same standard curve was used to quantitate analyte concentrations in both brain and plasma.

breast cancer cells = assay: Proliferation of breast cancer cells in vitro; format: cell-based
[7] = Thyroid function in human subjects treated with IRX4204; format: in vivo
[8] = test system: oligodendrocyte differentiation and remyelination; assay: In vitro measures of oligodendrocyte differentiation and remyelination; format: cell-based
[9] = 10 mg/kg/day oral gavage, day 7 to day 21

CCOC(=O)/C=C(C)/C=C/[C@@H]1C[C@]1(C)c1ccc2c(c1)C(C)(C)CCC2(C)C [IRX4204EE, 3,7-dimethyl-6(S),7(S)-methano,7-[1,1,4,4-tetramethyl-1,2,3,4-tetrahydronaphth-7-yl]2(E),4(E) heptadienoic ethyl ester]
EC50 (RARβ [1]): > 1000 nM
EC50 (RARγ [2]): > 1000 nM
Ki (RXRγ): > 1000 nM
Ki (RARα): > 1000 nM
Ki (RARβ [3]): > 1000 nM
Ki (RARγ [4]): > 1000 nM
activation of PPARy/RXR heterodimer (PPARy/RXR): very little activity
activation of LXRα/RXR heterodimer (LXRα/RXR): very little activity
activation of LXRβ/RXR heterodimer (LXRβ/RXR): very little activity
activity in focal toxin rat model relative to IRX4204 (same end-points) ([5]; rat, in vivo): somewhat more active than the free acid
concentration of the ester in the brain over the course of the experiment ([6]; 0.5 to 3 hr): rose slightly
concentration of the ester in blood compared with brain ([6]; 3 hour time point): approximately the same
blood concentration of the ester itself relative to IRX4204 ([6]; 3 hours): about 5 fold
concentration of IRX4204 in the blood from the ester form compared with the free acid form ([6]; 3 hours): about the same
blood concentration of IRX4204 due to conversion of IRX4204EE relative to that due to IV injection of IRX4204 ([6]; half-hour time point): about one sixth

CC(/C=C/[C@@H]1C[C@]1(C)c1ccc2c(c1)C(C)(C)CCC2(C)C)=C\C(=O)O [IRX4204, 3,7-dimethyl-6(S),7(S)-methano,7-[1,1,4,4-tetramethyl-1,2,3,4-tetrahydronaphth-7-yl]2(E),4(E) heptadienoic acid]
activation of LXRα/RXR heterodimer (LXRα/RXR): not to transactivate; also recorded: does not activate
activation of LXRβ/RXR heterodimer (LXRβ/RXR): not to transactivate; also recorded: does not activate
Mbp expression (real-time qPCR of lesion samples) [5, 9]: increase in Mbp expression
Nkx2.2+ oligodendrocyte precursor cells (OPCs) in lesions [5, 9]: increased
Pdgfra expression (real-time qPCR of lesion samples) [5, 9]: increase in Pdgfra expression
density of CC1+ differentiated oligodendrocytes in lesions [5, 9]: increased
density of Olig2+ oligodendrocyte lineage cells in lesions [5, 9]: increased
remyelinated axons (ultrastructural analysis of CCP lesions) [5, 9]: more remyelinated axons
concentration at 3 h ([6]; male, ICR, mouse, brain, 3 hours post-administration): 7.9 to 8.2 nM
inhibition of proliferation of breast cancer cells (breast cancer cells; 10 nM): observably inhibit the proliferation
inhibition of proliferation of breast cancer cells (breast cancer cells; 100 nM): substantial improvement in effectiveness
circulating thyroxine levels [7]: reduction in circulating thyroxine levels
plasma levels of TSH [7]: reduction in plasma levels of TSH
concentration with marginal activity detected [8]: 1 pM
